Experimental data published in patent US20090012103A1, “SUBSTITUTED HETEROCYCLIC COMPOUNDS” (priority 2007, published 2009).

Columns and labels:
[1] = target: T1, wild-type human cardiac sodium channel, hNav1.5 (Homo sapiens, UniProt Q14524); assay: Peak INa screening assay (tonic block TB and use-dependent block UDB of peak sodium current); assay type: cell-based; details: compound at 10 μM
Description: The late sodium current (Late INa) and peak sodium current (Peak INa) assays are performed on an automated electrophysiology platform, PatchXpress 7000A (MDS Analytical Technologies, Sunnyvale, Calif.), which uses the whole cell patch clamp technique to measure currents through the cell membrane of up to 16 cells at a time. The assay uses an HEK293 (human embryonic kidney) cell line heterologously expressing the wild-type human cardiac sodium channel, hNav1.5, purchased from Millipore (Billerica, Mass.). No beta subunits were coexpressed with the Na channel alpha subunit. […] Experiments are carried out at 24-27° C.
For both the Late INa and Peak INa assays, series resistance compensation is set to 50% and whole-cell compensation is performed automatically. […] Currents through open sodium channels are automatically recorded and stored in the DataXpress2 database (MDS Analytical Technologies, Sunnyvale, Calif.). Analysis is performed using DataXpress2 analysis software and data are compiled in Excel.
Compound stocks are routinely made in glass vials to 10 mM in dimethyl sulfoxide (DMSO). In some cases, when compounds are not soluble in DMSO, they are made in 100% ethanol. Stocks are sonicated as necessary. The extracellular solution for screening Late INa is composed of: 140 mM NaCl, 4 mM KCl, 1.8 mM CaCl2, 0.75 mM MgCl2, and 5 mM HEPES with pH adjusted to 7.4 using NaOH. The extracellular solution for screening Peak INa is composed of: 20 mM NaCl, 120 mM N-methyl-D glucamine, 4 mM KCl, 1.8 mM CaCl2, 0.75 mM MgCl2, and 5 mM HEPES with pH adjusted to 7.4 using HCl. The intracellular solution used to perfuse the inside of the cells for both the Late INa and Peak INa assays contains: 120 mM CsF, 20 mM CsCl, 5 mM EGTA, 5 mM HEPES and pH adjusted to 7.4 with CsOH. Compounds are diluted in extracellular solution to 10 μM in glass vials and then transferred to glass well plates before robotic addition to the cells. The 0 Na extracellular solution used at the end of each experiment for the Late INa and Peak INa assays to measure baseline current contains: 140 mM N-methyl-D-glucamine; 4 mM KCl; 1.8 mM CaCl2; 0.75 mM MgCl2; 5 mM HEPES and pH was adjusted to 7.4 with HCl.
Compounds were also evaluated for their effect in several other assays, including their effect on Peak INa. In some cases, the effect on Peak INa was measured using data from the Late INa assay. […] Since the peak INa can be very large, introducing artifacts in the recording, the concentration of Na^+ in the bath is reduced to 20 mM and a nonpermeant cation is added to compensate for the Na^+ that was omitted from the standard extracellular solution (see above). The peak INa assay uses a holding potential of −100 mV and a 20 ms test pulse to 0 mV to activate the channel. As in the Late INa assay, stepping the voltage to 0 mV causes a rapid increase in negative Na current through hNav1.5 that inactivates within a few ms. No late INa activator is added for the peak assay.
For the separate peak INa assay, both tonic (TB) block and use-dependent (UDB) block of peak inward sodium current by 10 μM compound are determined. TB is block of the channel in the resting state, before the channel opens. TB is simulated in this assay by stimulating the channel to open at a low frequency (0.1 Hz). This is done in order to measure the control current amplitude and monitor current rundown, enabling correction for rundown in the calculation of percent block for TB.

[2] = target: T1, wild-type human cardiac sodium channel, hNav1.5; assay: Late INa screening assay (late sodium current, PatchXpress whole cell patch clamp); assay type: cell-based; details: compound at 10 μM; read-out: Late INa % blk
[3] = tonic block, read-out: Tonic Peak INa % blk
[4] = use-dependent block, read-out: UDB Peak INa % blk

T1 sequence (Q14524 whole entry): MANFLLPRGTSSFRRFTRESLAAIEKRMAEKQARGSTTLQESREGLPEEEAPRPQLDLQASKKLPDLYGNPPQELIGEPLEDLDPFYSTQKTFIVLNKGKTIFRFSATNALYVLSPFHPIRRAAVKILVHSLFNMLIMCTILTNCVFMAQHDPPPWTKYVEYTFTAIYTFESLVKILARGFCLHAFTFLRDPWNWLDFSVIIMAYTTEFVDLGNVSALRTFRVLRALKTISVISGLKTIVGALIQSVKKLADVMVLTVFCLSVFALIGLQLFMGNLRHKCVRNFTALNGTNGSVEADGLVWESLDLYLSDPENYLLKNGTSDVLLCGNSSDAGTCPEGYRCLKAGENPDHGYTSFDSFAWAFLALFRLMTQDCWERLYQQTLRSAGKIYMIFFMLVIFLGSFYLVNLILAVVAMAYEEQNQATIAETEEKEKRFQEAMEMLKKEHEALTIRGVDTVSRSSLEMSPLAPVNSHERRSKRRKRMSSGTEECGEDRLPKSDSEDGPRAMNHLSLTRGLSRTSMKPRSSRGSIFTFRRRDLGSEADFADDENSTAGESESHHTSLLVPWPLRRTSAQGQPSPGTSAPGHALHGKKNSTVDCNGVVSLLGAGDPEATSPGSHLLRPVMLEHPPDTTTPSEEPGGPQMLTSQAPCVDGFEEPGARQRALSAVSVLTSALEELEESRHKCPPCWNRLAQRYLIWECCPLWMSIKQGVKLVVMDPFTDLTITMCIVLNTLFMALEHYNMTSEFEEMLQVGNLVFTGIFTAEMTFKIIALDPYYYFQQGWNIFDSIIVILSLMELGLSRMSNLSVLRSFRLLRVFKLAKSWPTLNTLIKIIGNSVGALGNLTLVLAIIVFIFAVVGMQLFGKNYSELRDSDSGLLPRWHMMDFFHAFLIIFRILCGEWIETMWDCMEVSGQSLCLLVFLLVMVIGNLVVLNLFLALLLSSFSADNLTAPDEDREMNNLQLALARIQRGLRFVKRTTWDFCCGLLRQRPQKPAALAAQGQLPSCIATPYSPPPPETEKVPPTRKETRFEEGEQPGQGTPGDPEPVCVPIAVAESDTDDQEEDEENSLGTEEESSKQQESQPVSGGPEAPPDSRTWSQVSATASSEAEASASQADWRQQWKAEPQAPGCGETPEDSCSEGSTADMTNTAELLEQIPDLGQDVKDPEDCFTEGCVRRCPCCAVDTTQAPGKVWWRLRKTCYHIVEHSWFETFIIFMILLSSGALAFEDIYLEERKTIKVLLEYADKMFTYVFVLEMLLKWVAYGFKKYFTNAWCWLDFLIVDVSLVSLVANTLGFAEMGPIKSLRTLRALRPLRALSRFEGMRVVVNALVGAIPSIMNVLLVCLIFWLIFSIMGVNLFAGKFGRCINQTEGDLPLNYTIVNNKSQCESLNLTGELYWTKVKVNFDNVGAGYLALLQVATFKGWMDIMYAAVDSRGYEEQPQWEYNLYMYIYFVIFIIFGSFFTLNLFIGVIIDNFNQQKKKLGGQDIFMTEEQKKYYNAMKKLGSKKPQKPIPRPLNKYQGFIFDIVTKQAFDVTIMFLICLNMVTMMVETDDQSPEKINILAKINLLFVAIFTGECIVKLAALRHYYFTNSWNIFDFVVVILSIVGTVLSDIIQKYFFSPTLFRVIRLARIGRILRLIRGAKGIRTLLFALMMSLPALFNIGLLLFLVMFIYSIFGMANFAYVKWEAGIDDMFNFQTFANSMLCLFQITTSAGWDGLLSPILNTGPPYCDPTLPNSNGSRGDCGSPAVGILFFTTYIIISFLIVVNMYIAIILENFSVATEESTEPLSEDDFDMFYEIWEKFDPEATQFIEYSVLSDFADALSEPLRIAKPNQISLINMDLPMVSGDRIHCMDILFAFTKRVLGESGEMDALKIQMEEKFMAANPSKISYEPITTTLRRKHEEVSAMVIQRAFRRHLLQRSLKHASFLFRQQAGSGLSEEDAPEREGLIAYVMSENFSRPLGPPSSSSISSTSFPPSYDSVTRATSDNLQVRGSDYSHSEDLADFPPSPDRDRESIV

Structure (SMILES) | inhibition at 10 µM [1, 3] | inhibition at 10 µM [1, 4] | inhibition at 10 µM [2]
CCOC(=O)C1=C(C)Nc2nnnn2C1c1cccc(OCc2ccc(C(=O)OCC)cc2)c1 (stereo not drawn) [PT-497, ethyl 7-(3-(4-(ethoxycarbonyl)benzyloxy)phenyl)-5-methyl-4,7-dihydrotetrazolo[1,5-a]pyrimidine-6-carboxylate] | 22.2% | 15.4% | 59%
CC1=C(C(=O)O[C@@H](C)c2ccccc2)C(c2sc3ccccc3c2C)n2nccc2N1 (stereo partly drawn) [PT-244, (S)-1-phenylethyl 5-methyl-7-(3-methylbenzo[b]thiophen-2-yl)-4,7-dihydropyrazolo[1,5-a]pyrimidine-6-carboxylate] | 66.2% | 44% | 68.7%
CC1=C(C(=O)OCc2ccccc2)C(c2ccccc2OCCN(C)C)n2nnnc2N1 (stereo not drawn) [PT-374, benzyl 7-(2-(2-(dimethylamino)ethoxy)phenyl)-5-methyl-4,7-dihydrotetrazolo[1,5-a]pyrimidine-6-carboxylate] | 38.7% |  | 66.3%
N#CC1=C(N)OC2=C(C(=O)CC(c3ccccc3)C2)C1c1ccsc1 (stereo not drawn) [PT-102, 2-amino-5-oxo-7-phenyl-4-(thiophen-3-yl)-5,6,7,8-tetrahydro-4H-chromene-3-carbonitrile] | 2.7% |  | 44.9%
CCOC(=O)C1=C(C)Nc2nnnn2C1c1c(Br)sc2ccccc12 (stereo not drawn) [PT-489, ethyl 7-(2-bromobenzo[b]thiophen-3-yl)-5-methyl-4,7-dihydrotetrazolo[1,5-a]pyrimidine-6-carboxylate] | 46.2% | 29.2% | 80.7%
CC1=C(C(=O)OCc2ccccc2)C(c2sccc2-c2ccccc2)n2nnnc2N1 (stereo not drawn) [PT-352, benzyl 5-methyl-7-(3-phenylthiophen-2-yl)-4,7-dihydrotetrazolo[1,5-a]pyrimidine-6-carboxylate] | 17.7% |  | 76.3%
CCOC(=O)C1=C(C)Nc2nnnn2C1c1sccc1-c1cccc(F)c1 (stereo not drawn) [PT-496, ethyl 7-(3-(3-fluorophenyl)thiophen-2-yl)-5-methyl-4,7-dihydrotetrazolo[1,5-a]pyrimidine-6-carboxylate] | 36.8% | 9.1% | 84.2%
CC1=C(C(=O)OCc2ccccc2)C(c2ccc(N(C)C)c3ccccc23)c2cn[nH]c2N1 (stereo not drawn) [PT-332, benzyl 4-(4-(dimethylamino)naphthalen-1-yl)-6-methyl-4,7-dihydro-1H-pyrazolo[3,4-b]pyridine-5-carboxylate] | 11.3% | 2.7% | 20%
CCOC(=O)C1=C(C)Nc2nnnn2C1c1cccc(OCc2cccc(C(=O)OC)c2)c1 (stereo not drawn) [PT-495, ethyl 7-(3-(3-(methoxycarbonyl)benzyloxy)phenyl)-5-methyl-4,7-dihydrotetrazolo[1,5-a]pyrimidine-6-carboxylate] | 20.7% | 11.6% | 54.2%
CCOC(=O)C1=C(C)Nc2nnnn2C1c1cccc(Oc2cccc(C(=O)OCC)c2)c1 (stereo not drawn) [PT-494, ethyl 7-(3-(3-(ethoxycarbonyl)phenoxy)phenyl)-5-methyl-4,7-dihydrotetrazolo[1,5-a]pyrimidine-6-carboxylate] | 6.7% | 2% | 71.8%
CC1=C(C(=O)OCc2ccccc2)C(c2cc(C)c(C)s2)n2nnnc2N1 (stereo not drawn) [PT-414, benzyl 7-(4,5-dimethylthiophen-2-yl)-5-methyl-4,7-dihydrotetrazolo[1,5-a]pyrimidine-6-carboxylate] | 21.6% |  | 78%
CC1=C(C(=O)OCc2ccccc2)C(c2sccc2Br)n2nnnc2N1 (stereo not drawn) [PT-401, benzyl 7-(3-bromothiophen-2-yl)-5-methyl-4,7-dihydrotetrazolo[1,5-a]pyrimidine-6-carboxylate] | 25.9% |  | 77.3%
CC1=C(C(=O)O[C@@H](C)c2ccccc2)C(c2c3ccccc3cc3ccccc23)n2nnnc2N1 (stereo partly drawn) [PT-055, (S)-1-phenylethyl 7-(anthracen-9-yl)-5-methyl-4,7-dihydrotetrazolo[1,5-a]pyrimidine-6-carboxylate] | 7.6% |  | 56.3%
COc1cc([N+](=O)[O-])ccc1C1C(C(=O)OCc2ccccc2)=C(C)Nc2ccnn21 (stereo not drawn) [PT-394, benzyl 7-(2-methoxy-4-nitrophenyl)-5-methyl-4,7-dihydropyrazolo[1,5-a]pyrimidine-6-carboxylate] | 15.4% | 8% | 45.2%
COc1ccccc1COC(=O)C1=C(C)Nc2nnnn2C1c1c(C)cccc1C (stereo not drawn) [PT-262, 2-methoxybenzyl 7-(2,6-dimethylphenyl)-5-methyl-4,7-dihydrotetrazolo[1,5-a]pyrimidine-6-carboxylate] | 15.1% | 6.9% | 70%
CC1=C(C(=O)O[C@@H](C)c2ccccc2)C(c2cccc3ccccc23)n2nnnc2N1 (stereo partly drawn) [PT-048, (S)-1-phenylethyl 5-methyl-7-(naphthalen-1-yl)-4,7-dihydrotetrazolo[1,5-a]pyrimidine-6-carboxylate] | 58.6% |  | 90.8%
CC1=C(C(=O)NCCCCc2ccccc2)C(c2ccsc2)C2=C(CCCC2=O)N1 (stereo not drawn) [PT-164, 2-methyl-5-oxo-N-(4-phenylbutyl)-4-(thiophen-3-yl)-1,4,5,6,7,8-hexahydroquinoline-3-carboxamide] | 10.2% |  | 32%
CC1=C(C(=O)OC(C)C)C(c2c(Br)sc3ccccc23)n2nnnc2N1 (stereo not drawn) [PT-506, isopropyl 7-(2-bromobenzo[b]thiophen-3-yl)-5-methyl-4,7-dihydrotetrazolo[1,5-a]pyrimidine-6-carboxylate] | 48.8% | 23% | 81.4%
CCOC(=O)C1=C(C)Nc2nnnn2C1c1ccccc1I (stereo not drawn) [PT-492, ethyl 7-(2-iodophenyl)-5-methyl-4,7-dihydrotetrazolo[1,5-a]pyrimidine-6-carboxylate] | 0.3% |  | 39.3%
COC(=O)C1=C(C)Nc2nnnn2C1c1c(Br)sc2ccccc12 (stereo not drawn) [PT-518, methyl 7-(2-bromobenzo[b]thiophen-3-yl)-5-methyl-4,7-dihydrotetrazolo[1,5-a]pyrimidine-6-carboxylate] | 24% |  | 71.2%
CC1=C(C(=O)OCC(F)(F)F)C(c2cccc3ccccc23)n2nnnc2N1 (stereo not drawn) [PT-014, 2,2,2-trifluoroethyl 5-methyl-7-(naphthalen-1-yl)-4,7-dihydrotetrazolo[1,5-a]pyrimidine-6-carboxylate] | 9% |  | 50.9%
CCOC(=O)C1=C(C)NC(C)=C(C(=O)OCC)C1c1ccccc1-c1ccc(NS(C)(=O)=O)cc1 [PT-428, diethyl 2,6-dimethyl-4-(4′-(methylsulfonamido)biphenyl-2-yl)-1,4-dihydropyridine-3,5-dicarboxylate] | 5.3% | 1% | 45.1%
CCOC(=O)[C@@H]1CCCN(c2cc(OC)ccc2C2C(C(=O)OCc3ccccc3)=C(C)Nc3nnnn32)C1 (stereo partly drawn) [PT-373, benzyl 7-(2-((R)-3-(ethoxycarbonyl)piperidin-1-yl)-4-methoxyphenyl)-5-methyl-4,7-dihydrotetrazolo[1,5-a]pyrimidine-6-carboxylate] | 22.5% |  | 64.9%
